According to PubChem BioAssay (NCI):
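Cells were grown in 96-well plates and exposed to each compound for 48 hours at five concentrations; endpoints were interpolated linearly between bracketing concentrations, or set to the highest concentration if not reached. TGI marks complete inhibition of growth.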

Key:
Experiment in all cases: DTP human tumour cell line panel, 48 h
[1] = tested on: 786-0 renal
[2] = tested on: A498 renal
[3] = tested on: A549 NSCLC
[4] = tested on: ACHN renal
[5] = tested on: BT-549 breast
[6] = tested on: CAKI-1 renal
[7] = tested on: CCRF-CEM leukemia
[8] = tested on: COLO 205 colon
[9] = tested on: DMS 114 small cell lung
[10] = tested on: DMS 273 small cell lung
[11] = tested on: DU-145 prostate
[12] = tested on: EKVX NSCLC
[13] = tested on: HCC-2998 colon
[14] = tested on: HCT-116 colon
[15] = tested on: HCT-15 colon
[16] = tested on: HL-60(TB) leukemia
[17] = tested on: HOP-18 NSCLC
[18] = tested on: HOP-62 NSCLC
[19] = tested on: HOP-92 NSCLC
[20] = tested on: HS 578T breast
[21] = tested on: HT29 colon
[22] = tested on: IGROV1 ovarian
[23] = tested on: K-562 leukemia
[24] = tested on: KM12 colon
[25] = tested on: LOX IMVI melanoma
[26] = tested on: LXFL 529 NSCLC
[27] = tested on: M14 melanoma
[28] = tested on: M19-MEL melanoma
[29] = tested on: MALME-3M melanoma
[30] = tested on: MCF7 breast
[31] = tested on: MDA-MB-231 breast
[32] = tested on: MDA-MB-435
[33] = tested on: MDA-N
[34] = tested on: NCI-H226 lung
[35] = tested on: NCI-H23 lung
[36] = tested on: NCI-H460 lung
[37] = tested on: NCI-H522 lung
[38] = tested on: NCI/ADR-RES ovarian
[39] = tested on: OVCAR-3 ovarian
[40] = tested on: OVCAR-4 ovarian
[41] = tested on: OVCAR-5 ovarian
[42] = tested on: OVCAR-8 ovarian
[43] = tested on: PC-3 prostate
[44] = tested on: RPMI-8226 leukemia
[45] = tested on: RXF 393 renal
[46] = tested on: RXF-631 renal
[47] = tested on: SF-268 CNS
[48] = tested on: SF-295 CNS
[49] = tested on: SF-539 CNS
[50] = tested on: SK-MEL-2 melanoma
[51] = tested on: SK-MEL-28 melanoma
[52] = tested on: SK-MEL-5 melanoma
[53] = tested on: SK-OV-3 ovarian
[54] = tested on: SN12C renal
[55] = tested on: SNB-19 CNS
[56] = tested on: SNB-75 CNS
[57] = tested on: SNB-78 CNS
[58] = tested on: SR leukemia
[59] = tested on: SW-620 colon
[60] = tested on: T-47D breast
[61] = tested on: TK-10 renal
[62] = tested on: U251 CNS
[63] = tested on: UACC-257 melanoma
[64] = tested on: UACC-62 melanoma
[65] = tested on: UO-31 renal
[66] = tested on: XF 498 CNS
[67] = tested on: DLD-1 colon
[68] = tested on: KM20L2 colon
[69] = tested on: MOLT-4 leukemia

Molecule `CSC(=Nc1ccccc1)/N=C(\SCc1ccccc1)N(C)C` has a TGI [1] of 1.78 µM, a TGI [2] of 5.27 µM and a TGI [3] of 4.63 µM. The TGI [4] was 2.39 µM, the TGI [5] was 2860 nM and the TGI [6] was 2790 nM. For the same molecule, the TGI [7] was > 100 µM, the TGI [8] was 1.58 µM and the TGI [9] was 3.77 µM. For the same molecule, the TGI [10] was 2.57 µM, the TGI [11] was 2130 nM and the TGI [12] was 3.33 µM. It also gave a TGI [13] of 1690 nM, a TGI [14] of 1.38 µM and a TGI [15] of 2.38 µM. The TGI [16] was > 100 µM, the TGI [17] was 2.1 µM and the TGI [18] was 3.31 µM. It also gave a TGI [19] of 2.73 µM, a TGI [20] of 4.17 µM and a TGI [21] of 1.05 µM. For the same molecule, the TGI [22] was 2.45 µM, the TGI [23] was > 100 µM and the TGI [24] was 2.76 µM. It also gave a TGI [25] of 0.383 µM, a TGI [26] of 1.79 µM and a TGI [27] of 2.12 µM. It also gave a TGI [28] of 3.36 µM, a TGI [29] of 2.65 µM and a TGI [30] of 1190 nM. For the same molecule, the TGI [31] was 2390 nM, the TGI [32] was 2480 nM and the TGI [33] was 2030 nM. The TGI [34] was 3.1 µM, the TGI [35] was 3.32 µM and the TGI [36] was 0.691 µM. The TGI [37] was 0.54 µM, the TGI [38] was 3.77 µM and the TGI [39] was 2.1 µM. For the same molecule, the TGI [40] was 2.43 µM, the TGI [41] was 2.84 µM and the TGI [42] was 3.22 µM. The TGI [43] was 2550 nM, the TGI [44] was 3.57 µM and the TGI [45] was 2.3 µM. The TGI [46] was 3.12 µM, the TGI [47] was 2.48 µM and the TGI [48] was 2.89 µM. For the same molecule, the TGI [49] was 2.57 µM, the TGI [50] was 3.44 µM and the TGI [51] was 1.79 µM. It also gave a TGI [52] of 2920 nM, a TGI [53] of 6.69 µM and a TGI [54] of 2.42 µM. It also gave a TGI [55] of 2680 nM, a TGI [56] of 3.25 µM and a TGI [57] of 4.16 µM. The TGI [58] was > 100 µM, the TGI [59] was 1.83 µM and the TGI [60] was 1970 nM. For the same molecule, the TGI [61] was 2.63 µM, the TGI [62] was 2.54 µM and the TGI [63] was 3.23 µM. It also gave a TGI [64] of 1870 nM, a TGI [65] of 2.82 µM and a TGI [66] of 2.66 µM.
`O=C(Nc1nc2c(ncn2C2OC(CO)C(O)C2O)c(=O)[nH]1)c1ccccc1` (stereo not given) was tested, and the TGI [1] was > 100 µM, the TGI [2] was > 100 µM and the TGI [3] was > 100 µM. The TGI [4] was > 100 µM, the TGI [6] was > 100000 nM and the TGI [7] was > 100 µM. The TGI [8] was > 100 µM, the TGI [67] was > 100 µM and the TGI [10] was > 100 µM. The TGI [12] was > 100 µM, the TGI [14] was > 100 µM and the TGI [15] was > 100 µM. For the same molecule, the TGI [16] was > 100 µM, the TGI [17] was > 100 µM and the TGI [18] was > 100 µM. The TGI [19] was > 100 µM, the TGI [21] was > 100 µM and the TGI [22] was > 100 µM. The TGI [23] was > 100 µM, the TGI [24] was > 100 µM and the TGI [68] was > 100 µM. For the same molecule, the TGI [25] was > 100 µM, the TGI [26] was > 100 µM and the TGI [27] was > 100 µM. For the same molecule, the TGI [28] was > 100 µM, the TGI [29] was > 100 µM and the TGI [34] was > 100 µM. For the same molecule, the TGI [35] was > 100 µM, the TGI [36] was > 100 µM and the TGI [37] was > 100 µM. The TGI [39] was > 100 µM, the TGI [40] was > 100 µM and the TGI [41] was > 100 µM. The TGI [42] was > 100 µM, the TGI [44] was > 100 µM and the TGI [45] was > 100 µM. The TGI [46] was > 100 µM, the TGI [47] was > 100 µM and the TGI [48] was > 100 µM. The TGI [49] was > 100 µM, the TGI [50] was > 100 µM and the TGI [51] was > 100 µM. The TGI [52] was > 100000 nM, the TGI [53] was > 100 µM and the TGI [54] was > 100 µM. The TGI [56] was > 100 µM, the TGI [57] was > 100 µM and the TGI [58] was > 100 µM. For the same molecule, the TGI [59] was > 100 µM, the TGI [61] was > 100 µM and the TGI [62] was > 100 µM. For the same molecule, the TGI [63] was > 100 µM, the TGI [64] was > 100000 nM and the TGI [65] was > 100 µM. The TGI [66] was > 100 µM.
`Nc1ncnc2c1ncn2C1CC(OCc2ccccc2[N+](=O)[O-])C(CO)O1` (stereo not given) was tested, and the TGI [1] was > 50 µM, the TGI [2] was > 50 µM and the TGI [3] was > 50 µM. For the same molecule, the TGI [4] was 47.6 µM, the TGI [7] was > 50 µM and the TGI [8] was 16.9 µM. The TGI [67] was > 50 µM, the TGI [9] was 47.2 µM and the TGI [10] was > 50 µM. For the same molecule, the TGI [12] was > 50 µM, the TGI [13] was > 50000 nM and the TGI [14] was > 50 µM. The TGI [15] was > 50 µM, the TGI [16] was 31.6 µM and the TGI [17] was > 50 µM. For the same molecule, the TGI [18] was > 50 µM, the TGI [19] was > 50 µM and the TGI [21] was > 50 µM. The TGI [22] was > 50 µM, the TGI [23] was > 50 µM and the TGI [24] was > 50 µM. The TGI [68] was > 50 µM, the TGI [25] was > 50 µM and the TGI [26] was > 50 µM. For the same molecule, the TGI [27] was > 50 µM, the TGI [28] was 48.5 µM and the TGI [29] was > 50 µM. For the same molecule, the TGI [69] was > 50 µM, the TGI [34] was 36.3 µM and the TGI [35] was > 50 µM. The TGI [36] was > 50 µM, the TGI [37] was 35.9 µM and the TGI [39] was > 50 µM. The TGI [40] was > 50 µM, the TGI [41] was > 50 µM and the TGI [42] was > 50 µM. For the same molecule, the TGI [44] was > 50 µM, the TGI [45] was 21.4 µM and the TGI [47] was > 50 µM. For the same molecule, the TGI [48] was > 50 µM, the TGI [49] was > 50 µM and the TGI [50] was > 50 µM. For the same molecule, the TGI [51] was > 50 µM, the TGI [53] was > 50 µM and the TGI [54] was > 50 µM. For the same molecule, the TGI [55] was > 50000 nM, the TGI [57] was > 50 µM and the TGI [58] was 34.6 µM. For the same molecule, the TGI [59] was > 50 µM, the TGI [61] was > 50 µM and the TGI [62] was > 50 µM. For the same molecule, the TGI [63] was > 50 µM, the TGI [65] was 48 µM and the TGI [66] was > 50 µM.
